Measured values reported in US4916141A, “(S)-7-(3-amino-1-pyrrolidinyl)-1-cyclop ropyl-6-fluoro-1,4-dihydro-4-oxo-1,8-naphthyridine-3-carboxylic acid” (Warner-Lambert Company, priority 1989, dated 1990).
Values after ≈ are worked out from the molar mass of the structure shown. Structures can show the parent of a compound that is named as a salt.

What was measured:
[1] = system: gram-positive and gram-negative bacteria; experiment: antibacterial activity in vitro and in vivo (summary statement); conditions: in vitro as well as in vivo
Excerpt: The compounds of the invention display antibacterial activity when tested by the microtitration dilution method as described in Heifetz, et al, Antimicr. Agents and Chemot. 6, 124 (1974), which is incorporated herein by reference. By the use of the above reference method, the following minimum inhibitory concentration values (MICs in μg/ml) were obtained for the compound of the present invention, (S)-7-(3-amino-1-pyrrolidinyl)-1-cyclopropyl-6-fluoro-1,4-dihydro-4-oxo-1,8-naphthyridine-3-carboxylic acid, the corresponding (R) isomer and the racemic compound as described in U.S. Pat. No. 4,649,144.
(§1) The in vivo experiments on the bacteria named are expressed in terms of median protective doses (PD50) on the test animals to which the compounds were administered orally and subcutaneously. The measurement of PDso was carried out according to the following procedure:
Therapeutic activities of the compounds were compared in acute mouse protection tests in which 18-22 g female Charles River CD-1 mice were used. Oral and subcutaneous doses in twofold rising incremental series were administered concurrently with bacterial challenge. Challenges were accomplished by the intraperitoneal injection of an estimated 100 median lethal doses in 0.5 ml volumes of 5% hog gastric mucin or tryptic soy broth. Generally, greater than 90% of the untreated controls died within 48-72 hours. […]

[2] = system: Streptococcus pneumoniae SV-1; experiment: microtitration dilution MIC; format: cell-based; conditions: SV1, read-out: minimum inhibitory concentration (MIC)
Excerpt: (§2) The compounds of the invention display antibacterial activity when tested by the microtitration dilution method as described in Heifetz, et al, […]. Agents and Chemot. 6, 124 (1974), which is incorporated herein by reference. […] Pat. No. 4,649,144.

[3] = system: Staphylococcus aureus UC-76; experiment: microtitration dilution MIC; format: cell-based; conditions: UC76, read-out: minimum inhibitory concentration (MIC)
Excerpt: as §2

[4] = system: Proteus rettgeri M 1771; experiment: microtitration dilution MIC; format: cell-based; conditions: Providencia rettgeri, M1771, read-out: minimum inhibitory concentration (MIC)
Excerpt: as §2

[5] = system: Escherichia coli Vogel; experiment: microtitration dilution MIC; format: cell-based; conditions: read-out: minimum inhibitory concentration (MIC)
Excerpt: as §2

[6] = system: Pseudomonas aeruginosa UI-18; experiment: microtitration dilution MIC; format: cell-based; conditions: UI18, read-out: minimum inhibitory concentration (MIC)
Excerpt: as §2

[7] = system: Staphylococcus faecalis MGH-2; experiment: microtitration dilution MIC; format: cell-based; conditions: MGH2, read-out: minimum inhibitory concentration (MIC)
Excerpt: as §2

[8] = system: Staphylococcus aureus H 228; experiment: microtitration dilution MIC; format: cell-based; conditions: H228, read-out: minimum inhibitory concentration (MIC)
Excerpt: as §2

[9] = system: Streptococcus pyogenes C-203; experiment: microtitration dilution MIC; format: cell-based; conditions: C203, read-out: minimum inhibitory concentration (MIC)
Excerpt: as §2

[10] = system: Klebsiella pneumoniae MGH-2; experiment: microtitration dilution MIC; format: cell-based; conditions: MGH2, read-out: minimum inhibitory concentration (MIC)
Excerpt: as §2

[11] = system: Enterobacter cloacae MA 2646; experiment: microtitration dilution MIC; format: cell-based; conditions: MA2646, read-out: minimum inhibitory concentration (MIC)
Excerpt: as §2

[12] = system: Streptococcus pneumoniae SV-1; experiment: acute mouse protection test (PD50); format: in vivo, mouse (female Charles River CD-1); conditions: for median protective dose (PD50) P.O.: oral; for median protective dose (PD50) S.C.: subcutaneous
Description: as §1
(§3) Therapeutic activities of the compounds were compared in acute mouse protection tests in which 18-22 g female Charles River CD-1 mice were used. Oral and subcutaneous doses in twofold rising incremental series were administered concurrently with bacterial challenge. Challenges were accomplished by the intraperitoneal injection of an estimated 100 median lethal doses in 0.5 ml volumes of 5% hog gastric mucin or tryptic soy broth. Generally, greater than 90% of the untreated controls died within 48-72 hours. Final survival percentages, obtained after 4-7 days of observation among groups of 8-16 mice, were used to estimate median protective doses (PD50) by the log-probit method.

[13] = system: Escherichia coli Vogel; experiment: acute mouse protection test (PD50); format: in vivo, mouse (female Charles River CD-1); conditions: for median protective dose (PD50) P.O.: oral; for median protective dose (PD50) S.C.: subcutaneous
Description: as §1, §3

[14] = system: Pseudomonas aeruginosa UI-18; experiment: acute mouse protection test (PD50); format: in vivo, mouse (female Charles River CD-1); conditions: for median protective dose (PD50) P.O.: oral; for median protective dose (PD50) S.C.: subcutaneous
Description: as §1, §3

[15] = system: Staphylococcus faecalis MGH-2; experiment: acute mouse protection test (PD50); format: in vivo, mouse (female Charles River CD-1); conditions: for median protective dose (PD50) P.O.: oral; for median protective dose (PD50) S.C.: subcutaneous
Description: as §1, §3

SMILES | antibacterial activity compared with R isomer and racemic compound [1] | antibacterial activity compared with R isomer and racemic compound ([1]; listed as S form) | MIC [2] [µg/mL] | MIC [3] [µg/mL] | MIC [4] [µg/mL] | MIC [5] [µg/mL] | MIC [6] [µg/mL] | MIC [7] [µg/mL] | MIC [8] [µg/mL] | MIC [9] [µg/mL] | MIC [10] [µg/mL] | MIC [11] [µg/mL] | median protective dose (PD50) P.O. [12] | median protective dose (PD50) S.C. [12] | median protective dose (PD50) P.O. [13] | median protective dose (PD50) S.C. [13] | median protective dose (PD50) P.O. [14] | median protective dose (PD50) S.C. [14] | median protective dose (PD50) P.O. [15] | median protective dose (PD50) S.C. [15]
N[C@H]1CCN(c2nc3c(cc2F)c(=O)c(C(=O)O)cn3C2CC2)C1 ["S" Isomer, (S)-7-(3-Amino-1-pyrrolidinyl)-1-cyclopropyl-6-fluoro-1,4-dihydro-4-oxo-1,8-naphthyridine-3-carboxylic acid] | not only better than its opposite R isomer but also better than the racemic compound | significantly better activity against both gram-positive and gram-negative bacteria in vitro as well as in vivo | 0.05 (≈ 0.15 µM) | 0.013 (≈ 0.0391 µM) | 0.025 (≈ 0.0752 µM) | 0.006 (≈ 0.0181 µM) | 0.1 (≈ 0.301 µM) | 0.1 (≈ 0.301 µM) | 0.05 (≈ 0.15 µM) | 0.05 (≈ 0.15 µM) | 0.013 (≈ 0.0391 µM) | 0.013 (≈ 0.0391 µM) | 19 | 9 | 0.7 | 0.35 | 3.5 | 2.1 | 19 | 14
N[C@@H]1CCN(c2nc3c(cc2F)c(=O)c(C(=O)O)cn3C2CC2)C1 ["R" Isomer, (R)-7-(3-Amino-1-pyrrolidinyl)-1-cyclopropyl)-6-fluoro-1,4-dihydro-4-oxo-1,8-naphthyridine-3carboxylic acid hydrochloride] |  |  | 0.1 | 0.05 | 0.05 | 0.013 | 0.4 | 0.2 | 0.2 | 0.2 | 0.025 | 0.025 |  |  | 0.51 | 0.35 |  |  | 45 | 34
NC1CCN(c2nc3c(cc2F)c(=O)c(C(=O)O)cn3C2CC2)C1 (racemic) [Racemic, 7-(3-amino-1-pyrrolidinyl)-1-Cyclopropyl-6-fluoro-1,4-dihydro-4-oxo-1,8-naphthyridine-3-carboxylic acid] |  |  | 0.2 (≈ 0.602 µM) | 0.013 (≈ 0.0391 µM) | 0.1 (≈ 0.301 µM) | 0.013 (≈ 0.0391 µM) | 0.05 (≈ 0.15 µM) | 0.2 (≈ 0.602 µM) | 0.2 (≈ 0.602 µM) | 0.2 (≈ 0.602 µM) | 0.025 (≈ 0.0752 µM) | 0.025 (≈ 0.0752 µM) | 32 | 14 | 2.0 | 0.6 | 7.3 | 3.2 | 58 | 33
